Laboratory results: patent US20260063641A1, “COMPOSITIONS AND METHODS FOR LABELING AND DETECTING BINDING PARTNERS” (UNIVERSITY OF UTAH RESEARCH FOUNDATION, priority 2022, published 2026)
Entries after “also recorded” stand apart in the source; their conditions may differ.

Experiments:
[1] = test system: BRD2, BRD3 and BRD4 (BET proteins) and interactors; test: BioTAC proximity labeling with label-free mass spectrometry-based proteomics of streptavidin-enriched biotinylated proteins; type: cell-based
Description: (§1) Having determined that the BioTAC system could identify BRD4 as a (+)-JQ1 target in focused screens, it was evaluated as an unbiased target-ID method. To identify direct binders of (+)-JQ1 proteome-wide, BioTAC proximity labelling experiments were performed as described above, followed by label-free mass spectrometry-based proteomic analysis of biotinylated proteins enriched following a 30 minute treatment with 100 μM biotin plus DMSO or 1 μM Cpd1, and then 1 μM Cpd1 off-competed by pre-treatment with 10 μM free (+)-JQ1.
(§2) Having established conditions for determining the primary targets of small molecules using the BioTAC system, its utility in reading out the interactome sphere of (+)-JQ1 bound BET-proteins was next investigated. An advantage of the BioTAC system is the relatively long half-life of the activated biotin-AMP intermediate generated by TurboID, allowing the labelling radius to be increased up to 35 nm by extending the labelling time. To quantitively evaluate the ability of the BioTAC system to successfully enrich the known interactome of (+)-JQ1 bound BET proteins, time course BioTAC proximity labelling experiments were performed at the 1 h and 4 h time points, and evaluated streptavidin-enriched biotinylated proteins using mass spectrometry-based proteomic analysis (FIG. 2A-C, FIG. 6). Longer time points correlated with a greater number of proteins meeting the significance cut-offs (defined as FC>2, P<0.05) for both enrichment in Cpd1 vs. DMSO, and competition with free (+)-JQ1 in Cpd1 vs. Cpd1+10 μM (+)-JQ1, (FIG. 2A, FIG. 6). […] Additionally, identified hit proteins at 1-4 hrs also included many known BET interactors, such as proteins found in components of the Pol II productive elongation complex subunit P-TEFb, the TFILD complex, and the Nucleosome Remodeling Deacetylase (NuRD) complex, as well as known BRD4 direct-binder Histone H4. […] To test this hypothesis the hits were compared to an extensive BET protein interactome reference dataset identified using AP/MS and proximity labelling coupled to mass spectrometry with and without (+)-JQ1. The BioTAC system afforded significant enrichment and off-competition (P<0.0001, one-way ANOVA) of identified reference interactors at the 4 h time point (FIG. 2B). Next it was asked whether the inverse could be performed, enriching complex members identified by Lambert et al. Mol Cell 73, 621-638 e617 (2019) directly from the data without any a priori knowledge of known interactors. It was discovered that 60% of the statistically significant enriched and (+)-JQ1 rescued hits were also present in the Lambert dataset. This observation falls greater than 7 standard deviations above a random bootstrap analysis of the data without filtering for significant enrichment and (+)-JQ1 rescue (FIG. 2C).
(§3) 9 million HEK293 cells were plated into 15 cm dishes containing 12 mL of complete media (DMEM, 10% FBS, 1% pen/strep) and incubated overnight. Cells were transiently transfected with 1 mL of OptiMEM media containing 10 μg of BioTAC plasmid and 30 μL of TransIT-2020 transfection reagent for 24 hr. Following a media change, cells were optionally pre-treated with parental molecules for 10 min, then treated with bifunctional compound for 10 min, and finally labeled in 100 μM biotin for 30 min, 1 hr, or 4 hrs. Cells were washed 5 times with DPBS then harvested by scraping on ice into 1.5 mL tubes. […] Lysates were clarified by centrifuging at 16,000×g for 10 min and protein concentration determined by BCA assay. […]

[2] = molecular target: BRD2, BRD3 and BRD4 (BET proteins) and interactors (Homo sapiens, UniProt P25440); test: as above; type: cell-based; conditions: 1 μM, 4 hr timepoint
Description: as §1, §2, §3

Sequence of BRD2, BRD3 and BRD4 (BET proteins) and interactors (Homo sapiens, UniProt P25440) (P25440 whole entry): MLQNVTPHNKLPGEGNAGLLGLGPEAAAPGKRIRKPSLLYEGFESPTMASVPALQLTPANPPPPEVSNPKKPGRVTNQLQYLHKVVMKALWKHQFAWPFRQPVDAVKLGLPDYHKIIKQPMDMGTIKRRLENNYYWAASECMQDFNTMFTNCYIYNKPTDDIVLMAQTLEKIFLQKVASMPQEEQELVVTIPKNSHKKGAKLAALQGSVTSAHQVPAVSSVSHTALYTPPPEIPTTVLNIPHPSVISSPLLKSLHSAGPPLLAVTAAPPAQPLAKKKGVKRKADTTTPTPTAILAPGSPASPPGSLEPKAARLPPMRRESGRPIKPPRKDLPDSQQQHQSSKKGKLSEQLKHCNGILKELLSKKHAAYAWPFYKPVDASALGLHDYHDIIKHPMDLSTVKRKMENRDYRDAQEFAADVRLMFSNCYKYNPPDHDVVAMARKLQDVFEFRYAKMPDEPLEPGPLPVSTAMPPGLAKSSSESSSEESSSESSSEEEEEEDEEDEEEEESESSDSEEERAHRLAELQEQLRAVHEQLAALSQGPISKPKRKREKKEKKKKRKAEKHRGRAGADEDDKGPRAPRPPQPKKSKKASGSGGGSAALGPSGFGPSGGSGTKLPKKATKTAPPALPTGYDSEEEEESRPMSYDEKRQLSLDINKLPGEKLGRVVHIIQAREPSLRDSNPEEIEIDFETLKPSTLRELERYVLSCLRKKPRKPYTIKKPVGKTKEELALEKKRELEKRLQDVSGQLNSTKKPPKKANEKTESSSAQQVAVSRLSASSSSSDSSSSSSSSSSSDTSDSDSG
Sequence of BRD2, BRD3 and BRD4 (BET proteins) and interactors (Homo sapiens, UniProt P25440) (as listed by the source partner): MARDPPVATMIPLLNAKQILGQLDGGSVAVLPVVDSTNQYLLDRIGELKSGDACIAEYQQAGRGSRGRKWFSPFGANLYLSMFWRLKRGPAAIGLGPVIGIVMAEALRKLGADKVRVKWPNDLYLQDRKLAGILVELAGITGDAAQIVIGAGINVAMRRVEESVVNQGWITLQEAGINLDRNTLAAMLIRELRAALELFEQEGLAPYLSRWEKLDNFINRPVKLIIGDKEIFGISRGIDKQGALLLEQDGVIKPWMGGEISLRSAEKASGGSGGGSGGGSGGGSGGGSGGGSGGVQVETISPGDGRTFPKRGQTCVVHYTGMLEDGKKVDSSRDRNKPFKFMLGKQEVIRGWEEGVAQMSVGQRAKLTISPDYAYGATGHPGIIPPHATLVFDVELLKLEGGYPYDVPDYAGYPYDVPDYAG

Which “identification of BET-containing complexes (proteomics heatmap)” value ([1]; 1 μM with DMSO, 10 μM or 100 μM (+)-JQ1, FC>3, P<0.05) does the source give for `CC[C@H](C(=O)N1CCCC[C@H]1C(=O)O[C@H](CCc1ccc(OC)c(OC)c1)c1ccccc1OCC(=O)NCCOCCOCCOCCNC(=O)C[C@@H]1N=C(c2ccc(Cl)cc2)c2c(sc(C)c2C)-n2c(C)nnc21)c1cc(OC)c(OC)c(OC)c1` [Cpd1, (R)-1-(2-((17-((S)-4-(4-Chlorophenyl)-2,3,9-trimethyl-6H-thieno[3,2-f][1,2,4]triazolo[4,3-a][1,4]diazepin-6-yl)-2,16-dioxo-6,9,12-trioxa-3,15-diazaheptadecyl)oxy)phenyl)-3-(3,4-dimethoxyphenyl)propyl (S)-1-((S)-2-(3,4,5-trimethoxyphenyl)butanoyl)piperidine-2-carboxylate] here?
Its value is “identifies known BET-containing complexes”.

What about the “enrichment and off-competition of BRD3 and BRD4 (time course proteomics)” value ([1]; 1 μM, 30 min, 1 h and 4 h, vs DMSO and +10 μM (+)-JQ1, FC>2, P<0.05) of the same compound?
The value was “significantly enriched and off-competed at all time points”.

And the “fold-change of reference BRD2, BRD3 and BRD4 interactors (Lambert et al.), rescue by (+)-JQ1” value ([1]; 4 hr time point, P<0.0001, 1-way ANOVA)?
Its value is “statistically significant rescue”.

What about the “enrichment of BRD3 and BRD4 among biotinylated proteins (proteomics)” value ([1]; HEK293, 1 μM, 100 μM biotin, 30 min, vs DMSO and 10 μM (+)-JQ1 off-compete) of the same compound?
Its value is “Highly selective enrichment of known (+)-JQ1 targets BRD3 and BRD4; also recorded: significant enrichment of BRD3 and BRD4”.

What about the “detection of BRD2 (proteomics)” value [2] of the same compound?
The value was “detected”.
